Laboratory results: patent US20260083865A1, “PROSTATE SPECIFIC MEMBRANE ANTIGEN (PSMA) LIGANDS AND USE THEREOF” (priority 2022, published 2026)
Numbered stars: 1 amine (or outer) side, 2 acyl side, 3 side chain; on linkers, the order of the positions; unused ones are H or OH. Bridge positions count the residues as written; N and C are the ends. Square brackets hold non-standard residues; d marks the D form. Side chains are listed from the residue outwards. Peptide text beside a SMILES is read from it. * marks the point of attachment. TtdsdLys(DOTA)NH2 = NC(=O)[C@@H](CCCCNC(=O)CN1CCN(CC(=O)O)CCN(CC(=O)O)CCN(CC(=O)O)CC1)NC(=O)CCC(=O)NCCCOCCOCCOCCCN*; X3 = O=C(O)CN1CCN(CC(=O)O)CCN(CC(=O)NCCCOCCOCCOCCCN*)CCN(CC(=O)O)CC1; DOTA = O=C(O)CN1CCN(CC(=O)O)CCN(CC(=O)*)CCN(CC(=O)O)CC1; Phe(4-Cl) = N[C@@H](Cc1ccc(Cl)cc1)C(=O)O; Thz(5,5-Me2) = CC1(C)SCN[C@@H]1C(=O)O; Arg(Me) = CNC(=N)NCCC[C@H](N)C(=O)O; X4 = O=C(CN1CCC(N[*:1])CC1)[*:2]; X1 = O=C(CC1CCN([*:1])CC1)[*:2]; Lys(Me) = CNCCCC[C@H](N)C(=O)O; Suc = O=C(CCC(=O)[*:2])[*:1]; Tle = CC(C)(C)[C@H](N)C(=O)O; Propanoyl(3-OH) = O=C(CCO)*; 4Amb = NCc1ccc(C(=O)O)cc1; Nle = CCCC[C@H](N)C(=O)O; Aib = CC(C)(N)C(=O)O; βAla = NCCC(=O)O

Assays:
[1] = biological target: T1, Fc-fusion protein of human PSMA (hPSMA-Fc) (Homo sapiens, UniProt Q04609); assay: Surface plasmon resonance assay (Biacore T200, single cycle kinetic); type: binding; settings: pKD category for PSMA SPR activity assay, hPSMA-Fc, 25° C.; read-out: pKD CAT (converted)
T1 construct: purchased Acro Biosystems PSA-H5264
Procedure, shortened: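 KD, expressed as pKD, came from 1:1 Langmuir fits of reference- and buffer-blank-subtracted SPR data. The runs were single-cycle kinetics at 25° C in HBST/0.1% DMSO over human PSMA-Fc, captured to ~1000 RU on a peptide-coated CM5 surface and regenerated with 10 mM glycine pH 1.5.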

[2] = biological target: T2, PSMA-expressing C4-2 cells (Homo sapiens, UniProt Q04609); assay: FACS binding assay (competition with 50 nM PSM-0183); settings: pIC50 category of FACS binding, C4-2 cells; read-out: pIC50 [C4-2] CAT (converted)
T2 construct: PSMA-expressing C4-2 cells (ATCC, Cat. No. CRL-3314) were cultured in RPMI-1640; host or cells: C4-2 cells
Procedure, shortened: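 Competition format: fluorescent tracer PSM-0183 (50 nM) displaced from PSMA on C4-2 cells by a test compound titration over 1 h at 4 °C. Bound tracer was quantified as flow-cytometric AF488 median fluorescence after washing. Four-parameter logistic fits of MFI data gave IC50 and pIC50.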

T1 sequence (Q04609 44-750 limits assumed): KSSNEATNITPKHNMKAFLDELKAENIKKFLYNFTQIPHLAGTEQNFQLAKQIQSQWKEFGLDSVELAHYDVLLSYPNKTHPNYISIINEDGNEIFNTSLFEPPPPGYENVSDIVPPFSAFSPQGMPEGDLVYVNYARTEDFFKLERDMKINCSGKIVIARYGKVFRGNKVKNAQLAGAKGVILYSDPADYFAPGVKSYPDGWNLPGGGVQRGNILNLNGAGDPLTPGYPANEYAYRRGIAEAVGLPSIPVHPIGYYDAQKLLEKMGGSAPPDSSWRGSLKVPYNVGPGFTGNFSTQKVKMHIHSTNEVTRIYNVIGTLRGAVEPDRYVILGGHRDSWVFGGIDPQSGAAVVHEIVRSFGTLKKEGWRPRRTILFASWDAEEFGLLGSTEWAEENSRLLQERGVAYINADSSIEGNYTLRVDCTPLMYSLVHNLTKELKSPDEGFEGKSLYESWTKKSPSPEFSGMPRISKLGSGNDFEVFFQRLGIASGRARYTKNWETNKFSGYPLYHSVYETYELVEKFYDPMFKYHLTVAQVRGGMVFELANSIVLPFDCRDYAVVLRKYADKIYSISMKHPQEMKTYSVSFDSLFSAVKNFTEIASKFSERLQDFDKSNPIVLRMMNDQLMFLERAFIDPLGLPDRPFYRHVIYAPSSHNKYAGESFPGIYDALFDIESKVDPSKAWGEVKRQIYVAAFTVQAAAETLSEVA
T2 sequence (Q04609 whole entry): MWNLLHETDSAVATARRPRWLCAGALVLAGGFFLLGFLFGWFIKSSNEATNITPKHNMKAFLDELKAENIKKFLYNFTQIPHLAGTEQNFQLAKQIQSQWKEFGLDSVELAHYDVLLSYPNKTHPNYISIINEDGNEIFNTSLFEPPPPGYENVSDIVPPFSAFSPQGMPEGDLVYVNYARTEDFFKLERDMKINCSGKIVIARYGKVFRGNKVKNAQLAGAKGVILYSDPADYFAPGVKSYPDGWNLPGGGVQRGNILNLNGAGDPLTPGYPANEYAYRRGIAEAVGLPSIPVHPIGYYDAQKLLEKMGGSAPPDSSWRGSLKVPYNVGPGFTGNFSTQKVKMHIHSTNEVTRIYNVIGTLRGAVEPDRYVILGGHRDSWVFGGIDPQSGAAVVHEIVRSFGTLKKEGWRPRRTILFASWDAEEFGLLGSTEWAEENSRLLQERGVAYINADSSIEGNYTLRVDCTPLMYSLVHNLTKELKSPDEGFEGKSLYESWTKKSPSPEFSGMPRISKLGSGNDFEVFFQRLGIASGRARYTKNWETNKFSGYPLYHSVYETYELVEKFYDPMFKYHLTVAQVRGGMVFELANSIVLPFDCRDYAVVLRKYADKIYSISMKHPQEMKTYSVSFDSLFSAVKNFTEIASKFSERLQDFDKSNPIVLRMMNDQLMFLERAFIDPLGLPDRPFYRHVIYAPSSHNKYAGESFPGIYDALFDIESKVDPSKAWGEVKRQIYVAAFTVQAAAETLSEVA

Row | Structure (SMILES) | Kd [1] [nM] | IC50 [2] [nM]
1 | CC(=O)N[C@H](C(=O)NC(C)(C)C(=O)N[C@@H](Cc1ccccc1)C(=O)N[C@H]1CSSC[C@@H](C(=O)N[C@H](C(=O)N[C@H](C(=O)NCc2ccc(C(=O)N[C@H](CCCCNC(=O)CN3CCN(CC(=O)O)CCN(CC(=O)O)CCN(CC(=O)O)CC3)C(N)=O)cc2)[C@@H](C)O)C(C)(C)C)NC(=O)[C@H](CC(N)=O)NC(=O)C(C)(C)NC(=O)[C@H](CCCNC(=N)N)NC(=O)[C@H](CCCCN)NC1=O)[C@@H](C)O [PSM-0522, Ac-Thr-Aib-Phe-[Cys-Lys-Arg-Aib-Asn-Cys]-Tle-Thr-Pamb-lys(DOTA)-NH2] (Ac-T[Aib]FCKR[Aib]NC[Tle]T[4Amb][dK](DOTA)-NH2; disulfide 4-9) | < 12.6 | < 200
2 | CC(=O)N[C@@H](Cc1ccc(Cl)cc1)C(=O)N[C@H]1CSSC[C@@H](C(N)=O)NC(=O)[C@H](CC(N)=O)NC(=O)C(C)(C)NC(=O)[C@H](CCCNC(=N)N)NC(=O)[C@H](CCCCN)NC1=O [PSM-0524, Ac-Pcf-[Cys-Lys-Arg-Aib-Asn-Cys]-NH2] (Ac-[Phe(4-Cl)]CKR[Aib]NC-NH2; disulfide 2-7) | > 501 | > 3160
3 | CCCC[C@H](NC(=O)[C@@H]1CSSC[C@H](NC(=O)[C@H](Cc2ccccc2)NC(=O)[C@H](C)NC(=O)[C@H](NC(C)=O)[C@H](C)O)C(=O)N[C@@H](CCCCN)C(=O)N[C@@H](CCCNC(=N)N)C(=O)N[C@@H](C)C(=O)N[C@@H](CC(N)=O)C(=O)N1)C(=O)N[C@H](C(=O)N[C@@H](CC(=O)O)C(N)=O)[C@@H](C)O [PSM-0525, Ac-thr-Als-Phe-[Cys-Lys-Arg-Als-Asn-Cys]-Nle-Thr-Asp-NH2] | > 501 | > 3160
4 | C=C1N[C@@H](CCCCN)C(=O)N[C@@H](CCCNC(=N)N)C(=O)NC(C)(C)C(=O)N[C@@H](CC(N)=O)C(=O)N[C@H](C(=O)N[C@H](C(=O)N[C@H](C(=O)NCCOCCOCC(=O)N[C@H](CCCCNC(=O)CN2CCN(CC(=O)O)CCN(CC(=O)O)CCN(CC(=O)O)CC2)C(N)=O)[C@@H](C)O)C(C)(C)C)CSSC[C@@H]1NC(=O)[C@H](Cc1ccccc1)NC(=O)C(C)(C)NC(=O)[C@@H](NC(C)=O)[C@@H](C)O [PSM-0529, Ac-Thr-Aib-Phe-[Cys-Lys-Arg-Aib-Asn-Cys]-Tle-Thr-O2Oc-lys(DOTA)-NH2] | < 12.6 | < 200
5 | C[C@@H](O)[C@H](NC(=O)[C@@H](NC(=O)[C@@H]1CSSC[C@H](NC(=O)[C@H](Cc2ccccc2)NC(=O)C(C)(C)NC(=O)CCO)C(=O)N[C@@H](CCCCN)C(=O)N[C@@H](CCCNC(=N)N)C(=O)NC(C)(C)C(=O)N[C@@H](CC(N)=O)C(=O)N1)C(C)(C)C)C(N)=O [PSM-0530, HPA-Aib-Phe-[Cys-Lys-Arg-Aib-Asn-Cys]-Tle-Thr-NH2] ({Propanoyl(3-OH)}-[Aib]FCKR[Aib]NC[Tle]T-NH2; disulfide 3-8) | < 12.6 | < 200
6 | CC(=O)N[C@H](C(=O)NC(C)(C)C(=O)N[C@@H](Cc1ccccc1)C(=O)N[C@H]1CSSC[C@@H](C(=O)N[C@H](C(=O)N[C@H](C(=O)N[C@@H](CC(=O)O)C(N)=O)[C@@H](C)O)C(C)(C)C)NC(=O)[C@H](CC(N)=O)NC(=O)[C@H]2N(CSC2(C)C)C(=O)[C@H](CCCNC(=N)N)NC(=O)[C@H](CCCCN)NC1=O)[C@@H](C)O [PSM-0532, Ac-Thr-Aib-Phe-[Cys-Lys-Arg-Dtc-Asn-Cys]-Tle-Thr-Asp-NH2] (Ac-T[Aib]FCKR[Thz(5,5-Me2)]NC[Tle]TD-NH2; disulfide 4-9) | < 12.6 | < 200
7 | CCCC[C@H](NC(=O)[C@@H]1CSSC[C@H](NC(=O)[C@H](Cc2ccccc2)NC(=O)[C@H](C)NC(=O)[C@@H](NC(C)=O)[C@@H](C)O)C(=O)N[C@@H](CCCCN)C(=O)N[C@@H](CCCNC(=N)N)C(=O)N[C@@H](C)C(=O)N[C@@H](CC(N)=O)C(=O)N1)C(=O)N[C@H](C(=O)N[C@@H](CC(=O)O)C(=O)NCCCOCCOCCOCCCNC(=O)CCC(=O)N[C@H](CCCCNC(=O)CN1CCN(CC(=O)O)CCN(CC(=O)O)CCN(CC(=O)O)CC1)C(N)=O)[C@@H](C)O [PSM-0533, Ac-Thr-Ala-Phe-[Cys-Lys-Arg-Ala-Asn-Cys]-Nle-Thr-Asp-Ttds-lys(DOTA)-NH2] (Ac-TAFCKRANC[Nle]TD-{TtdsdLys(DOTA)NH2}; disulfide 4-9) | 12.6 to 126 | 200 to 1260
8 | CC(=O)N[C@H](C(=O)NC(C)(C)C(=O)N[C@@H](Cc1ccccc1)C(=O)N[C@H]1CSSC[C@@H](C(=O)N[C@H](C(=O)N[C@H](C(=O)N[C@@H](CC(=O)O)C(N)=O)[C@@H](C)O)C(C)(C)C)NC(=O)[C@H](CC(N)=O)NC(=O)[C@H](C)NC(=O)[C@H](CCCNC(=N)N)NC(=O)[C@@H](CCCCN)NC1=O)[C@@H](C)O [PSM-0535, Ac-Thr-Aib-Phe-[Cys-lys-Arg-Ala-Asn-Cys]-Tle-Thr-Asp-NH2] (Ac-T[Aib]FC[dK]RANC[Tle]TD-NH2; disulfide 4-9) | < 12.6 | 200 to 1260
9 | CCCC[C@H](NC(=O)[C@@H]1CSSC[C@H](NC(=O)[C@H](Cc2ccccc2)NC(=O)[C@@H](C)NC(=O)[C@@H](NC(C)=O)[C@@H](C)O)C(=O)N[C@@H](CCCCN)C(=O)N[C@@H](CCCNC(=N)N)C(=O)N[C@@H](C)C(=O)N[C@@H](CC(N)=O)C(=O)N1)C(=O)N[C@H](C(=O)N[C@@H](CC(=O)O)C(N)=O)[C@@H](C)O [PSM-0537, Ac-Thr-ala-Phe-[Cys-Lys-Arg-Ala-Asn-Cys]-Nlc-Thr-Asp-NH2] | > 501 | 1260 to 3160
10 | CNCCCC[C@@H]1NC(=O)[C@@H](NC(=O)[C@H](Cc2ccc(Cl)cc2)NC(=O)C(C)(C)NC(=O)[C@@H](NC(=O)CC2CCN(C(=O)CN3CCN(CC(=O)O)CCN(CC(=O)O)CCN(CC(=O)O)CC3)CC2)C(C)(C)C)CSSC[C@@H](C(=O)N[C@H](C(=O)N[C@H](C(N)=O)[C@@H](C)O)C(C)(C)C)NC(=O)[C@H](CC(N)=O)NC(=O)C(C)(C)NC(=O)[C@H](CCCNC(=N)NC)NC1=O [PSM-0538, DOTA-Cmp-Tle-Aib-Pcf-[Cys-Lys (Mc)-Arg (Mc)-Aib-Asn-Cys]-Tle-Thr-NH2] ({DOTA}-[X1][Tle][Aib][Phe(4-Cl)]C[Lys(Me)][Arg(Me)][Aib]NC[Tle]T-NH2; disulfide 5-10) | 126 to 501 | 200 to 1260
11 | C[C@@H](O)[C@H](NC(=O)CN1CCN(CC(=O)O)CCN(CC(=O)O)CCN(CC(=O)O)CC1)C(=O)NC(C)(C)C(=O)N[C@@H](Cc1ccccc1)C(=O)N[C@H]1CSSC[C@@H](C(=O)N[C@H](C(=O)NCCC(N)=O)C(C)(C)C)NC(=O)[C@H](CC(N)=O)NC(=O)C(C)(C)NC(=O)[C@H](CCCNC(=N)N)NC(=O)[C@H](CCCCN)NC1=O [PSM-0539, DOTA-Thr-Aib-Phe-[Cys-Lys-Arg-Aib-Asn-Cys]-Tle-Bal-NH2] ({DOTA}-T[Aib]FCKR[Aib]NC[Tle][βAla]-NH2; disulfide 4-9) | 12.6 to 126 | < 200
12 | CC(=O)N[C@H](C(=O)NC(C)(C)C(=O)N[C@@H](Cc1ccccc1)C(=O)N[C@H]1CSSC[C@@H](C(=O)N[C@H](C(=O)N[C@@H](CCC(N)=O)C(N)=O)C(C)(C)C)NC(=O)[C@H](CC(N)=O)NC(=O)C(C)(C)NC(=O)[C@H](CCCNC(=N)N)NC(=O)[C@H](CCCCN)NC1=O)[C@@H](C)O [PSM-0540, Ac-Thr-Aib-Phe-[Cys-Lys-Arg-Aib-Asn-Cys]-Tle-Gln-NH2] (Ac-T[Aib]FCKR[Aib]NC[Tle]Q-NH2; disulfide 4-9) | < 12.6 | < 200
13 | CC(=O)N[C@H](C(=O)NC(C)(C)C(=O)N[C@@H](Cc1ccccc1)C(=O)N[C@H]1CSSC[C@@H](C(=O)N[C@H](C(=O)N[C@H](C(N)=O)[C@@H](C)O)C(C)(C)C)NC(=O)[C@H](Cc2ccccc2)NC(=O)C(C)(C)NC(=O)[C@H](CCCNC(=N)N)NC(=O)[C@H](CCCCN)NC1=O)[C@@H](C)O [PSM-0541, Ac-Thr-Aib-Phe-[Cys-Lys-Arg-Aib-Phe-Cys]-Tle-NH2] (Ac-T[Aib]FCKR[Aib]FC[Tle]T-NH2; disulfide 4-9) | < 12.6 | < 200
14 | CC(=O)N[C@H](C(=O)NC(C)(C)C(=O)N[C@@H](Cc1ccccc1)C(=O)N[C@H]1CSSC[C@@H](C(=O)N[C@H](C(=O)N[C@H](C(=O)N[C@@H](CC(=O)O)C(N)=O)[C@@H](C)O)C(C)(C)C)NC(=O)[C@H](CC(N)=O)NC(=O)[C@H](CCCCNC(=O)CCC(=O)NCCCOCCOCCOCCCNC(=O)CN2CCN(CC(=O)O)CCN(CC(=O)O)CCN(CC(=O)O)CC2)NC(=O)[C@H](CCCNC(=N)N)NC(=O)[C@H](CCCCN)NC1=O)[C@@H](C)O [PSM-0542, Ac-Thr-Aib-Phe-[Cys-Lys-Arg-Lys(DOTA-Ttds)-Asn-Cys]-Tle-Thr-Asp-NH2] (Ac-T[Aib]FCKRK([Suc-X3])NC[Tle]TD-NH2; disulfide 4-9) | < 12.6 | < 200
15 | C[C@@H](O)[C@H](NC(=O)[C@@H](NC(=O)[C@@H]1CSSC[C@H](NC(=O)[C@H](Cc2ccccc2)NC(=O)C(C)(C)NC(=O)[C@@H](NC(=O)CN2CCC(NC(=O)CN3CCN(CC(=O)O)CCN(CC(=O)O)CCN(CC(=O)O)CC3)CC2)[C@@H](C)O)C(=O)N[C@@H](CCCCN)C(=O)N[C@@H](CCCNC(=N)N)C(=O)NC(C)(C)C(=O)N[C@@H](CC(N)=O)C(=O)N1)C(C)(C)C)C(N)=O [PSM-0543, DOTA-APAc-Thr-Aib-Phe-[Cys-Lys-Arg-Aib-Asn-Cys]-Tle-Thr-NH2] ({DOTA}-[X4]T[Aib]FCKR[Aib]NC[Tle]T-NH2; disulfide 5-10) | < 12.6 | < 200
